Test results as given in ChEMBL document CHEMBL4342489, “Structure-Activity Relationship Evaluation of Wasp Toxin β-PMTX Leads to Analogs with Superior Activity for Human Neuronal Sodium Channels” (ACS Med Chem Lett, 2020).
Activity calls are given as the source filed them. The rule behind the calls is not given here. Non-standard residues stand in square brackets, D forms with d. Residues, ends and D or L forms follow the SMILES beside them. 1Nal = N[C@@H](Cc1cccc2ccccc12)C(=O)O; 2Nal = N[C@@H](Cc1ccc2ccccc2c1)C(=O)O

Experiments:
[1] = target: Sodium channel protein type 1 subunit alpha (Homo sapiens) (UniProt P35498); test: Activation of human Nav1.1 expressed in HEK293 cells assessed as ratio of compound activation AUC to baseline activation AUC at 3.3 uM at -120 mV holding potential by Qpatch assay; format: cell-based
[2] = target: Sodium channel protein type 1 subunit alpha (Homo sapiens) (UniProt P35498); test: Activation of human Nav1.1 expressed in HEK293 cells at 3.3 uM at -120 mV holding potential by Qpatch assay relative to control; format: cell-based
[3] = target: Sodium channel protein type 1 subunit alpha (Homo sapiens) (UniProt P35498); test: Activation of human Nav1.1 expressed in HEK293 cells assessed as ratio of compound activation AUC to baseline activation AUC at 0.37 uM at -120 mV holding potential by Qpatch assay; format: cell-based
[4] = target: Sodium channel protein type 4 subunit alpha (Homo sapiens) (UniProt P35499); test: Activation of human Nav1.4 expressed in HEK293 cells assessed as ratio of compound activation AUC to baseline activation AUC at 3.3 uM at -120 mV holding potential by Qpatch assay; format: cell-based
[5] = target: Sodium channel protein type 1 subunit alpha (Homo sapiens) (UniProt P35498); test: Activation of human Nav1.1 expressed in HEK293 cells assessed as ratio of compound activation AUC to baseline activation AUC at 1.11 uM at -120 mV holding potential by Qpatch assay; format: cell-based
[6] = target: Sodium channel protein type 3 subunit alpha (Homo sapiens) (UniProt Q9NY46); test: Activation of human Nav1.3 expressed in CHOK1 cells assessed as ratio of compound activation AUC to baseline activation AUC at 3.3 uM at -120 mV holding potential by Qpatch assay; format: cell-based
[7] = target: Sodium channel protein type 5 subunit alpha (Homo sapiens, UniProt Q14524); test: Activation of human Nav1.5 expressed in HEK293 cells assessed as ratio of compound activation AUC to baseline activation AUC at 3.3 uM at -120 mV holding potential by Qpatch assay; format: cell-based; conditions: hek293, 3.3 µM
[8] = target: Sodium channel protein type 8 subunit alpha (Homo sapiens) (UniProt Q9UQD0); test: Activation of human Nav1.6 expressed in HEK293 cells assessed as ratio of compound activation AUC to baseline activation AUC at 3.3 uM at -120 mV holding potential by Qpatch assay; format: cell-based
Sodium channel protein type 8 subunit alpha (Homo sapiens), sequence (Q9UQD0 whole entry, looked up): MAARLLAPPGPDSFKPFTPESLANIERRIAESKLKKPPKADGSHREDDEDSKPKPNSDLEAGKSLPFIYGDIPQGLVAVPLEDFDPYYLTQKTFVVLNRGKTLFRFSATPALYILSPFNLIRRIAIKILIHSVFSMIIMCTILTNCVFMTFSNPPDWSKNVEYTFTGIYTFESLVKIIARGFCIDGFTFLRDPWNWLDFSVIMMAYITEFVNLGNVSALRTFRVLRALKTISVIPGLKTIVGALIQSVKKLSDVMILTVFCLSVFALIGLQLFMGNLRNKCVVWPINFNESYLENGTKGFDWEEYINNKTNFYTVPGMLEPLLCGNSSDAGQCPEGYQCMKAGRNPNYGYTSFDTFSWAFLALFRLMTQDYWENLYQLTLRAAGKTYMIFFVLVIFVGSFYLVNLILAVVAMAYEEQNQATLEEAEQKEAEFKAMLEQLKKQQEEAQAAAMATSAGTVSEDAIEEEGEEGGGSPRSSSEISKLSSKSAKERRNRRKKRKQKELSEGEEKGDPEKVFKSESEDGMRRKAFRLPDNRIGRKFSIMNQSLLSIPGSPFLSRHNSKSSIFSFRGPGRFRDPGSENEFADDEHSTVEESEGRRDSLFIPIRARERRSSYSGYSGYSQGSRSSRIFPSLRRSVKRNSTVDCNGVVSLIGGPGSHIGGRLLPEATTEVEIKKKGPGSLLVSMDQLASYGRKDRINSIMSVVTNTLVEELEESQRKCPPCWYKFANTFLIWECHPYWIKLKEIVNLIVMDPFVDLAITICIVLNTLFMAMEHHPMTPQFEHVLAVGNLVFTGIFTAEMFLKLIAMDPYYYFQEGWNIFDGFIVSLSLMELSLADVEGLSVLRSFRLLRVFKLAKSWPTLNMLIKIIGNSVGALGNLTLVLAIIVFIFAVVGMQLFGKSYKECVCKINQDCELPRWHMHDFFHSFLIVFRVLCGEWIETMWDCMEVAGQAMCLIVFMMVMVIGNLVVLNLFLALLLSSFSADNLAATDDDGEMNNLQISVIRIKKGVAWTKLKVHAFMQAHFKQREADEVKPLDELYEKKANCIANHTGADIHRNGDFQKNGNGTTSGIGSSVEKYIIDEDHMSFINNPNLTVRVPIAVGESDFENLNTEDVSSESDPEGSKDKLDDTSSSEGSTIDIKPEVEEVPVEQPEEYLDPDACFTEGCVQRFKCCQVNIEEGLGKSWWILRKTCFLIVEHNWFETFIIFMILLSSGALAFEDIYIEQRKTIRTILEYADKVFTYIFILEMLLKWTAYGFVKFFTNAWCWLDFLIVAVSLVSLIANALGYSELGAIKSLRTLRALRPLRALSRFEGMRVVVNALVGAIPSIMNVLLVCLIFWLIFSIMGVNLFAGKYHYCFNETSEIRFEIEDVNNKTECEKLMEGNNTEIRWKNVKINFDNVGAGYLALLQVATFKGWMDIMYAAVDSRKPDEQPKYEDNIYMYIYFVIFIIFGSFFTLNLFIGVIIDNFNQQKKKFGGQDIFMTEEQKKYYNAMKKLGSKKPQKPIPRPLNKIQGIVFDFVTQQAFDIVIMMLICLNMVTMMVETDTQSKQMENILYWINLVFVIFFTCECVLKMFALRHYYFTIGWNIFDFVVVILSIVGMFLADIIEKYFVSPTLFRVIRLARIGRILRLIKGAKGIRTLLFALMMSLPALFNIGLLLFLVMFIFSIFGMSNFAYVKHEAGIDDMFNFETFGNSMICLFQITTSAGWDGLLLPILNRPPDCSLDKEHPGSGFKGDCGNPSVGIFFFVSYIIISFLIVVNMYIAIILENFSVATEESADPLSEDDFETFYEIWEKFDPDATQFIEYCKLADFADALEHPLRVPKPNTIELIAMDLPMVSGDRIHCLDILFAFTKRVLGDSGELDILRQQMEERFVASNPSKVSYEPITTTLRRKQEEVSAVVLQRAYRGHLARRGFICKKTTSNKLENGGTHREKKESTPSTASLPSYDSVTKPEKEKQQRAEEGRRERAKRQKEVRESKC

[9] = target: Sodium channel protein type 9 subunit alpha (Homo sapiens) (UniProt Q15858); test: Activation of human Nav1.7 expressed in HEK293 cells assessed as ratio of compound activation AUC to baseline activation AUC at 3.3 uM at -120 mV holding potential by Qpatch assay; format: cell-based
Sodium channel protein type 9 subunit alpha (Homo sapiens), sequence (Q15858 whole entry, looked up): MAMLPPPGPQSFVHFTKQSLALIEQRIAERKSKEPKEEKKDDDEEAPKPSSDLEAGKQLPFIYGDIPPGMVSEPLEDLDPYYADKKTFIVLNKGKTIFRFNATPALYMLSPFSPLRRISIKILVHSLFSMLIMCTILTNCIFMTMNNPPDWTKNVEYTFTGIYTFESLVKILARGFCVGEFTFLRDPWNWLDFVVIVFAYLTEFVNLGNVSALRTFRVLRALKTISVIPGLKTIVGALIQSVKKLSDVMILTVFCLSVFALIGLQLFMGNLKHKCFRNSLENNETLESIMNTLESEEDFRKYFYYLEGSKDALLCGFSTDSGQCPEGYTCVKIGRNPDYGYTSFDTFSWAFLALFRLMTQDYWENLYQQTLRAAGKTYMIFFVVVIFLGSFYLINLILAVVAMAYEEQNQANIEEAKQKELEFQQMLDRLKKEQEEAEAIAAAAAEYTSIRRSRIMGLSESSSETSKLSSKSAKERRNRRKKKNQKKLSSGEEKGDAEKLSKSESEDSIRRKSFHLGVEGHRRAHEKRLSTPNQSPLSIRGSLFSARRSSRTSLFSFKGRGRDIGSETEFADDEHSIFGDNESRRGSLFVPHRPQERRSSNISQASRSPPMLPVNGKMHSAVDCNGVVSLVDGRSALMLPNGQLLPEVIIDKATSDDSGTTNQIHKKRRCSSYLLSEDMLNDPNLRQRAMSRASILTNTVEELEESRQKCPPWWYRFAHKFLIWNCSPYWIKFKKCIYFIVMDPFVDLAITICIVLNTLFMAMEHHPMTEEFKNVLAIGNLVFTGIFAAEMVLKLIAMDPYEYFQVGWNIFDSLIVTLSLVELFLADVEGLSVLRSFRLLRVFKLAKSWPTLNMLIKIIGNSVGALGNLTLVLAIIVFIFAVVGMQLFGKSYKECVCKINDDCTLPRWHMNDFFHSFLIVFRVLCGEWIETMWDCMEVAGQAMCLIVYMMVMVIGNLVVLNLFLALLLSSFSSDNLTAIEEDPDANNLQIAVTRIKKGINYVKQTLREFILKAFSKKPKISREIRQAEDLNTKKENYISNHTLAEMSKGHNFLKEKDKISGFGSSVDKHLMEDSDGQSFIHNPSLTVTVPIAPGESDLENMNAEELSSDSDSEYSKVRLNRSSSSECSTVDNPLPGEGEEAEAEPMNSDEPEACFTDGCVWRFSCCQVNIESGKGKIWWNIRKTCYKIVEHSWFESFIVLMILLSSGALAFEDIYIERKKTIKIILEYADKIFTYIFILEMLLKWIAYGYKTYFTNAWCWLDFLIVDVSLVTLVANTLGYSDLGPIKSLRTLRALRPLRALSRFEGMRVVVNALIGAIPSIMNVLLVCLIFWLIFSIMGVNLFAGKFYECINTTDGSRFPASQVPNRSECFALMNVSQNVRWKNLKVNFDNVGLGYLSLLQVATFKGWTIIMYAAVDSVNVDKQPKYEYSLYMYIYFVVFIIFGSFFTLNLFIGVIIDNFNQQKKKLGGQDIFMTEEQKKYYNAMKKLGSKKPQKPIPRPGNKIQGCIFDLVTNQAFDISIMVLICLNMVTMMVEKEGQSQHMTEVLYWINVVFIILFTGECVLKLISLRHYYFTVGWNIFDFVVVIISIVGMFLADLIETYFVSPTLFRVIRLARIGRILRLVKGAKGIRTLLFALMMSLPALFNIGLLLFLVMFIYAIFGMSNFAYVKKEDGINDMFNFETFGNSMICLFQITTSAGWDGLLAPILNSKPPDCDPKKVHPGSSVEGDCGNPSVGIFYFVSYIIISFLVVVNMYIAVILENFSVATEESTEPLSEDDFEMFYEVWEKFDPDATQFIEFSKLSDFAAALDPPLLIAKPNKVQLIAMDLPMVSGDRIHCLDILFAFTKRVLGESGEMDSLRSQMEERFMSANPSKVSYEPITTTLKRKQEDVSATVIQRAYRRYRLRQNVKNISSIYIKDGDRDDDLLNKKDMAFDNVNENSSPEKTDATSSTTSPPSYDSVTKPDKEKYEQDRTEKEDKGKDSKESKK

[10] = target: Sodium channel protein type 2 subunit alpha (Homo sapiens) (UniProt Q99250); test: Activation of human Nav1.2 expressed in CHOK1 cells assessed as ratio of compound activation AUC to baseline activation AUC at 3.3 uM at -120 mV holding potential by Qpatch assay; format: cell-based
[11] = target: Sodium channel protein type 1 subunit alpha (Homo sapiens) (UniProt P35498); test: Activation of human Nav1.1 expressed in HEK293 cells assessed as ratio of compound activation AUC to baseline activation AUC at 0.12 uM at -120 mV holding potential by Qpatch assay; format: cell-based
[12] = target: Sodium channel protein type 1 subunit alpha (Mus musculus) (UniProt A2APX8); test: Activation of Nav1.1 in C57BL/6 mouse GABAergic cortical neurons assessed as rescue of ICA-121431-induced neuronal firing loss at 300 nM at holding potential -65 mV by current clamp assay

SMILES | Ratio AUC [1] | Activity [2] [%] | Ratio AUC [3] | Ratio AUC [4] | Ratio AUC [5] | Ratio AUC [6] | Ratio AUC [7] | Ratio AUC [8] | Ratio AUC [9] | Ratio AUC [10] | Ratio AUC [11] | Activity [12]
CC[C@H](C)[C@H](NC(=O)[C@H](CCCCN)NC(=O)[C@@H](NC(=O)[C@@H](N)CCCNC(=N)N)[C@@H](C)CC)C(=O)NCC(=O)N[C@@H](CC(C)C)C(=O)N[C@@H](Cc1ccccc1)C(=O)N[C@@H](CC(=O)O)C(=O)N[C@@H](CCC(N)=O)C(=O)N[C@@H](CC(C)C)C(=O)N[C@@H](CO)C(=O)N[C@@H](CCCNC(=N)N)C(=O)N[C@@H](CC(C)C)C(N)=O (H-RIKIGLFDQLSRL-NH2) | 1.4 | 40 | 1 | 0.8 | 1.1 | 1.2 | 1 | 1.3 | 1.1 | 0.9 | 1 | 
CC[C@H](C)[C@H](NC(=O)[C@H](CCCCN)NC(=O)[C@@H](NC(=O)[C@@H](N)CCCNC(=N)N)[C@@H](C)CC)C(=O)NCC(=O)N[C@@H](CC(C)C)C(=O)N[C@@H](Cc1cccc2ccccc12)C(=O)N[C@@H](CC(=O)O)C(=O)N[C@@H](CCC(N)=O)C(=O)N[C@@H](CC(C)C)C(=O)N[C@@H](CO)C(=O)N[C@@H](CCCNC(=N)N)C(=O)N[C@@H](CC(C)C)C(N)=O (H-RIKIGL[1Nal]DQLSRL-NH2) | 3.1 |  | 1.2 | 1.4 | 1.8 | 2 | 1.7 | 3.1 | 2.9 | 1.8 | 1 | Active
CC[C@H](C)[C@H](NC(=O)[C@H](CCCNC(=N)N)NC(=O)[C@@H](NC(=O)[C@@H](N)CCCNC(=N)N)[C@@H](C)CC)C(=O)NCC(=O)N[C@@H](CC(C)C)C(=O)N[C@@H](Cc1ccc2ccccc2c1)C(=O)N[C@@H](CC(=O)O)C(=O)N[C@@H](CCC(N)=O)C(=O)N[C@@H](CC(C)C)C(=O)N[C@@H](CC(C)C)C(=O)N[C@@H](CCCNC(=N)N)C(=O)N[C@@H](CC(C)C)C(N)=O (H-RIRIGL[2Nal]DQLLRL-NH2) | 12.7 | 1170 | 2.5 | 1.6 | 5.2 | 4.4 | 1.3 | 8.1 | 9.6 | 7.1 | 1.4 | 
